Assay results reported in US8008456B2, “Compositions containing, methods involving, and uses of non-natural amino acids and polypeptides” (Ambrx, Inc., priority 2004, dated 2011).

Experiment: pH stability tests
Assay type: physicochemical
Procedure: This example provides the results of pH stability tests that were conducted on certain illustrative non-natural amino acids as an aid for predicting their properties for incorporation into non-natural amino acid polypeptides.

COCCOC(=O)NCCO/N=C(\C)COc1ccccc1
pH stability (pH 4.0, 1 hour): 2%
pH stability (pH 4.0, 1 day): 5%
pH stability (pH 4.0, 2 days): 5%
pH stability (pH 4.0, 3 days): 5%
pH stability (pH 4.0, 4 days): 8%
pH stability (pH 4.0, 5 days): 8%
pH stability (pH 4.0, 6 days): 8%
pH stability (pH 4.0, 7 days): 9%
pH stability (pH 4.0, 10 days): 10%
pH stability (pH 5.0, 1 hour): <1%
pH stability (pH 5.0, 1 day): 5%
pH stability (pH 5.0, 2 days): 5%
pH stability (pH 5.0, 3 days): 5%
pH stability (pH 5.0, 4 days): 5%
pH stability (pH 5.0, 5 days): 5%
pH stability (pH 5.0, 6 days): 5%
pH stability (pH 5.0, 7 days): 5%
pH stability (pH 5.0, 10 days): 5%
pH stability (pH 6.5, 1 hour): <1%
pH stability (pH 6.5, 1 day): <1%
pH stability (pH 6.5, 2 days): <1%
pH stability (pH 6.5, 3 days): <1%
pH stability (pH 6.5, 4 days): <1%
pH stability (pH 6.5, 5 days): <1%
pH stability (pH 6.5, 6 days): <1%
pH stability (pH 6.5, 7 days): <1%
pH stability (pH 6.5, 10 days): <1%
pH stability (pH 7.4, 1 hour): <1%
pH stability (pH 7.4, 1 day): 15%
pH stability (pH 7.4, 2 days): 15%
pH stability (pH 7.4, 3 days): 15%
pH stability (pH 7.4, 4 days): 15%
pH stability (pH 7.4, 5 days): 15%
pH stability (pH 7.4, 6 days): 15%
pH stability (pH 7.4, 7 days): 15%
pH stability (pH 7.4, 10 days): 15%
pH stability (pH 8.0, 1 hour): <1%
pH stability (pH 8.0, 1 day): 35%
pH stability (pH 8.0, 2 days): 38%
pH stability (pH 8.0, 3 days): 40%
pH stability (pH 8.0, 4 days): 45%
pH stability (pH 8.0, 5 days): 45%
pH stability (pH 8.0, 6 days): 45%
pH stability (pH 8.0, 7 days): 45%
pH stability (pH 8.0, 10 days): 45%

COCCOC(=O)NCCO/N=C(\C)CNC(=O)c1ccccc1
pH stability (pH 4.0, 1 hour): 5%
pH stability (pH 4.0, 1 day): 7%
pH stability (pH 4.0, 2 days): 8%
pH stability (pH 4.0, 3 days): 10%
pH stability (pH 4.0, 4 days): 11%
pH stability (pH 4.0, 5 days): 11%
pH stability (pH 4.0, 6 days): 11%
pH stability (pH 4.0, 7 days): 11%
pH stability (pH 4.0, 10 days): 11%
pH stability (pH 5.0, 1 hour): <1%
pH stability (pH 5.0, 1 day): 3%
pH stability (pH 5.0, 2 days): 3%
pH stability (pH 5.0, 3 days): 5%
pH stability (pH 5.0, 4 days): 7%
pH stability (pH 5.0, 5 days): 7%
pH stability (pH 5.0, 6 days): 7%
pH stability (pH 5.0, 7 days): 8%
pH stability (pH 5.0, 10 days): 8%
pH stability (pH 6.5, 1 hour): <1%
pH stability (pH 6.5, 1 day): <1%
pH stability (pH 6.5, 2 days): <1%
pH stability (pH 6.5, 3 days): 2%
pH stability (pH 6.5, 4 days): 2%
pH stability (pH 6.5, 5 days): 2%
pH stability (pH 6.5, 6 days): 2%
pH stability (pH 6.5, 7 days): 2%
pH stability (pH 6.5, 10 days): 2%
pH stability (pH 7.4, 1 hour): <1%
pH stability (pH 7.4, 1 day): <1%
pH stability (pH 7.4, 2 days): <1%
pH stability (pH 7.4, 3 days): <1%
pH stability (pH 7.4, 4 days): <1%
pH stability (pH 7.4, 5 days): <1%
pH stability (pH 7.4, 6 days): <1%
pH stability (pH 7.4, 7 days): <1%
pH stability (pH 7.4, 10 days): <1%
pH stability (pH 8.0, 1 hour): 9%
pH stability (pH 8.0, 1 day): 24%
pH stability (pH 8.0, 2 days): 30%
pH stability (pH 8.0, 3 days): 30%
pH stability (pH 8.0, 4 days): 30%
pH stability (pH 8.0, 5 days): 30%
pH stability (pH 8.0, 6 days): 30%
pH stability (pH 8.0, 7 days): 33%
pH stability (pH 8.0, 10 days): 34%

COCCOC(=O)NCCO/N=C(\C)C(=O)c1ccccc1
pH stability (pH 4.0, 1 hour): <1%
pH stability (pH 4.0, 1 day): <1%
pH stability (pH 4.0, 2 days): <1%
pH stability (pH 4.0, 3 days): <1%
pH stability (pH 4.0, 4 days): <1%
pH stability (pH 4.0, 5 days): <1%
pH stability (pH 4.0, 6 days): <1%
pH stability (pH 4.0, 7 days): <1%
pH stability (pH 4.0, 10 days): <1%
pH stability (pH 5.0, 1 hour): <1%
pH stability (pH 5.0, 1 day): <1%
pH stability (pH 5.0, 2 days): <1%
pH stability (pH 5.0, 3 days): <1%
pH stability (pH 5.0, 4 days): <1%
pH stability (pH 5.0, 5 days): <1%
pH stability (pH 5.0, 6 days): <1%
pH stability (pH 5.0, 7 days): <1%
pH stability (pH 5.0, 10 days): <1%
pH stability (pH 6.5, 1 hour): <1%
pH stability (pH 6.5, 1 day): <1%
pH stability (pH 6.5, 2 days): <1%
pH stability (pH 6.5, 3 days): <1%
pH stability (pH 6.5, 4 days): <1%
pH stability (pH 6.5, 5 days): <1%
pH stability (pH 6.5, 6 days): <1%
pH stability (pH 6.5, 7 days): <1%
pH stability (pH 6.5, 10 days): <1%
pH stability (pH 7.4, 1 hour): <1%
pH stability (pH 7.4, 1 day): <1%
pH stability (pH 7.4, 2 days): <1%
pH stability (pH 7.4, 3 days): <1%
pH stability (pH 7.4, 4 days): <1%
pH stability (pH 7.4, 5 days): <1%
pH stability (pH 7.4, 6 days): <1%
pH stability (pH 7.4, 7 days): <1%
pH stability (pH 7.4, 10 days): <1%
pH stability (pH 8.0, 1 hour): <1%
pH stability (pH 8.0, 1 day): <1%
pH stability (pH 8.0, 2 days): <1%
pH stability (pH 8.0, 3 days): <1%
pH stability (pH 8.0, 4 days): <1%
pH stability (pH 8.0, 5 days): <1%
pH stability (pH 8.0, 6 days): <1%
pH stability (pH 8.0, 7 days): <1%
pH stability (pH 8.0, 10 days): <1%

COCCOC(=O)NCCO/N=C1\C(=O)Nc2ccccc21
pH stability (pH 4.0, 1 hour): <1%
pH stability (pH 4.0, 1 day): <1%
pH stability (pH 4.0, 2 days): <1%
pH stability (pH 4.0, 3 days): <1%
pH stability (pH 4.0, 4 days): <1%
pH stability (pH 4.0, 5 days): <1%
pH stability (pH 4.0, 6 days): <1%
pH stability (pH 4.0, 7 days): <1%
pH stability (pH 4.0, 10 days): <1%
pH stability (pH 5.0, 1 hour): <1%
pH stability (pH 5.0, 1 day): <1%
pH stability (pH 5.0, 2 days): <1%
pH stability (pH 5.0, 3 days): <1%
pH stability (pH 5.0, 4 days): <1%
pH stability (pH 5.0, 5 days): <1%
pH stability (pH 5.0, 6 days): <1%
pH stability (pH 5.0, 7 days): <1%
pH stability (pH 5.0, 10 days): <1%
pH stability (pH 6.5, 1 hour): <1%
pH stability (pH 6.5, 1 day): <1%
pH stability (pH 6.5, 2 days): <1%
pH stability (pH 6.5, 3 days): <1%
pH stability (pH 6.5, 4 days): <1%
pH stability (pH 6.5, 5 days): <1%
pH stability (pH 6.5, 6 days): <1%
pH stability (pH 6.5, 7 days): <1%
pH stability (pH 6.5, 10 days): <1%
pH stability (pH 7.4, 1 hour): <1%
pH stability (pH 7.4, 1 day): <1%
pH stability (pH 7.4, 2 days): <1%
pH stability (pH 7.4, 3 days): <1%
pH stability (pH 7.4, 4 days): <1%
pH stability (pH 7.4, 5 days): <1%
pH stability (pH 7.4, 6 days): <1%
pH stability (pH 7.4, 7 days): <1%
pH stability (pH 7.4, 10 days): <1%
pH stability (pH 8.0, 1 hour): <1%
pH stability (pH 8.0, 1 day): <1%
pH stability (pH 8.0, 2 days): <1%
pH stability (pH 8.0, 3 days): <1%
pH stability (pH 8.0, 4 days): <1%
pH stability (pH 8.0, 5 days): <1%
pH stability (pH 8.0, 6 days): <1%
pH stability (pH 8.0, 7 days): <1%
pH stability (pH 8.0, 10 days): <1%
